Assay results as given in ChEMBL document CHEMBL1150000, “Purine 2, 3-acyclonucleosides: Improved synthesis and antiparasitic actimity” (Bioorg Med Chem Lett, 1995).
Activity calls are given as the source filed them. The rule behind the calls is not given here.

Key:
Leishmania donovani = test: In vitro inhibitory activity against Leishmania donovani; Inactive; format: functional, organism-based
Trypanosoma brucei [1] = test: In vitro inhibitory activity against Trypanosoma brucei; Inactive; format: functional, organism-based
Trypanosoma brucei [2] = test: In vitro inhibitory activity against Trypanosoma brucei; format: functional, organism-based
Trypanosoma cruzi = test: In vitro inhibitory activity against growth of Trypanosoma cruzi at a concentration of 30 uM; 20-40%; format: functional; details: read-out: GI

| Compound | Activity (Leishmania donovani) | IC50 (Trypanosoma brucei [1]) [µM] | IC50 (Trypanosoma brucei [2]) [µM] | inhibition of growth at 30 µM (Trypanosoma cruzi) [%] |
| --- | --- | --- | --- | --- |
| OCC(CO)OC(CO)n1cnc2c(O)ncnc21 (stereo unspecified) | inactive | ≥ 100 |  |  |
| CC(=O)OCC(COC(C)=O)OC(COC(C)=O)n1cnc2c(O)ncnc21 (stereo unspecified) | inactive |  | 5.4 |  |
| CC(=O)OCC(CO)OC(COC(C)=O)n1cnc2c(N)ncnc21 (stereo unspecified) | inactive |  | 7 |  |
| Nc1ncnc2c1ncn2C(CO)OC(CO)CSCCO (stereo unspecified) | inactive | ≥ 100 |  |  |
| CCC(CO)OC(CO)n1cnc2c(N)ncnc21 (stereo unspecified) | inactive |  |  | 40 |
| Nc1ncnc2c1ncn2C(CO)OC(CO)CO (stereo unspecified) | inactive | ≥ 100 |  |  |
| CC(=O)OCCSCC(COC(C)=O)OC(COC(C)=O)n1cnc2c(N)ncnc21 (stereo unspecified) | inactive |  | 5.3 |  |
| Nc1ncnc2c1ncn2C(CO)OC(CO)CCl (stereo unspecified) | inactive |  |  | 40 |
